Experimental data as given in patent US12180307B2, “Interleukin-13 binding cyclic oligopeptides and methods of use thereof” (B.A.I. LABORATORIES, LLC, priority 2022, dated 2024).
Several values for one entry are separate records, joined by “and”; a condition that tells them apart may be missing. Identical values can stand only once. Square brackets hold non-standard residues; d marks the D form. Peptide text beside a SMILES is read from it.

Legend:
[1] = Skin permeability, Franz Cell diffusion cell with artificial skin, Transdermal Diffusion Tester, BCA assay; type: in vitro ADME; details: for Average Permeation Rate After 1 Hour (%) / Average Permeation Rate After 24 Hours (%): 32° C., 1.0 mg/mL in PBS; for Average Permeation Rate After 1 Hour (%) / Papp at 1 h, 1 mg/mL: after 1 hour; for Papp at 1 h, 1 mg/mL: read-out: Average Permeability Coefficient (Kp) After 1 hour (converted); for Average Permeation Rate After 24 Hours (%) / Papp at 24 h, 1 mg/mL: after 24 hours; for Papp at 24 h, 1 mg/mL: read-out: Average Permeability Coefficient (Kp) After 24 hours
Protocol: As used herein, the term “skin permeation rate” of a cyclic oligopeptide is measured using artificial skin (Start M, Merck), and refers to the percentage of the cyclic oligopeptide that penetrate the artificial skin after certain amount of time. For example, if 60% of the total amount of a cyclic oligopeptide of this disclosure has penetrated the artificial skin after 24 hours, then the skin permeation rate of the cyclic oligopeptide is 60% after 24 hours.
As used herein, the term “skin permeability coefficient (Kp)” refers to the rate at which the cyclic oligopeptide penetrates the skin, as measured using artificial skin (Start M, Merck). In some embodiments, permeability coefficient (Kp)(cm/hr) is calculated with the following equation:
[formula] wherein Q(mg) refers to the total amount of cyclic oligopeptide that pass through the artificial skin within a certain amount of time; A(cm^2) refers to the internal cross-section area of the artificial skin in a diffusion cell; T(hr) refers to the total amount of time of cyclic oligopeptide permeation; and ΔC(mg/mL) refers to the concentration difference of the cyclic oligopeptide between the two sides of the artificial skin. In some embodiments, the diffusion cell is a Franz Cell.
Skin permeability of the cyclic oligopeptides generated in Example 1 was measured using Transdermal Diffusion Tester (TK-12D, Shanghai Kai Kai Industrial Co Ltd) and artificial skin (Start M, Merck). Three parallel experimental groups were set up for each sample. The skin permeability of cyclic oligopeptides was evaluated by the following steps: • 1) 2.0 mg cyclic oligopeptide was weighed and dissolved in 100 μL DMSO. Three parallel experimental groups were set up for each cyclic oligopeptide. The cyclic oligopeptide-containing solution was then slowly added dropwise to 1900 μL 1×PBS solution and mixed evenly to prepare a PBS solution with a final concentration of 1.0 mg/mL cyclic polypeptide. • 2) A magnetron was inserted into a Franz Cell diffusion cell, and an artificial skin was sandwiched in the middle of the diffusion cell with the smooth side of the artificial skin facing up. The diffusion cell was then fixed with clamps after assembly. • 3) 7.75 ml 1×PBS solution were then added to the diffusion cell without generating bubbles in the diffusion cell. The sampling port of the diffusion cell was then sealed with parafilm to reduce evaporation. • 4) The temperature of a Transdermal Diffusion Tester was then set to 32° C., and the magneton speed was set to 180 r/min. • 5) The assembled diffusion cell was then put into the Transdermal Diffusion Tester and preheated for 5-10 mins. • 6) 400 μL of 1.0 mg/mL cyclic oligopeptide solution prepared in step 1) was then added to the upper chamber of the diffusion cell, making it evenly dispersed on the surface of the artificial skin without air bubbles. The top port of the diffusion cell was then covered with parafilm to reduce evaporation. • 7) Starting from the time of adding the cyclic oligopeptide solution, samples of about 0.5 mL of the receiving solution were taken at six time points, 1 h, 2 h, 4 h, 8 h, 12 h and 24 h, using a plastic dropper to take out the samples from the sampling port of the diffusion cell. 0.5 mL of 1×PBS solution was added into the diffusion cell to restore the initial volume of the receiving solution. When sampling, the diffusion cell was tilted appropriately to avoid the generation of bubbles. The samples were then numbered and store at −20° C. • 8) A BCA Assay (Micro BCA Protein Assay Kit, Thermo Scientific) was conducted to measure the concentration of cyclic oligopeptide in samples obtained in step 7) (Actual Concentration of the cyclic oligopeptide at the particular time point). Three parallel groups were used. The weight of cyclic oligopeptide in each sample obtained in step 7) equals to Actual Concentration×0.5 mL. • 9) Permeation rate of each cyclic oligopeptide at each time point was calculated according to the following equation: […]

[2] = FIG. 2D
From the text: Table printed on a drawing sheet, FIG. 2D
The patent's description of the figure: FIG. 2A provides the mass spectrometry (MS) spectrum for Compound 1. FIG. 2B provides the high-performance liquid chromatography (HPLC) chromatogram for Compound 1. FIG. 2C provides surface plasmon resonance (SPR) assay curves showing the binding affinity of Compound 1 for IL-13, the x-axis represents time of reaction and y-axis represents altitude of response (Response Units). FIG. 2D illustrates skin permeation rate of Compound 1 for up to 24 hours. FIG. 2E illustrates average permeability coefficient (Kp) of Compound 1 for 1, 2, 4, 8, 12 and 24 hours.
First reader's note: Substance name is taken from the legend of the plot printed above the table; the values are skin permeation in three replicates, their average and their range.

[3] = biological target: Human IL-13 (Homo sapiens, UniProt P35225); assay: Surface plasmon resonance (SPR) binding assay, BIAcore 8K plus, immobilized Fc-tagged IL-13; details: 25° C., human IL-13 with Fc-tag immobilized on CM5 chip, read-out: Binding Affinity (KD) for IL-13
Protocol: A SPR assay was conducted to determine the binding affinity of the cyclic oligopeptides generated in Example 1 for IL-13 using a BIAcore 8K plus instrument (GE Healthcare). Human IL-13 with an Fc-tag was immobilized onto the surfaces of Series S Sensor CM5 (GE Healthcare) chips in the range of 5000 resonance units (RU). The binding kinetics were performed at 25° C. with a flow rate of 30 μL/min. The cyclic oligopeptides were analyzed in running buffer comprising 20 mM PBS, 2.7 mM KCl, […], 0.0500 Surfactant P20, pH 7.4, 1% DMSO, starting at 100 μM with gradient of ten two-fold dilutions using solvent correction mode.
FIGS. 2C, 3C, 4C, 5C, 6C, 7C, 8C, 9C, 10C, 11C, and 12C provide SPR response curves for the cyclic oligopeptides generated in Example 1, wherein the x-axis represents time of reaction and y-axis represents altitude of response (Response Units).

[4] = FIG. 3D
Protocol: Table printed on a drawing sheet, FIG. 3D
The patent's description of the figure: FIG. 3A provides the MS spectrum for Compound 2. FIG. 3B provides the HPLC chromatogram for Compound 2. FIG. 3C provides SPR assay curves showing the binding affinity of Compound 2 for IL-13, the x-axis represents time of reaction and y-axis represents altitude of response (Response Units). FIG. 3D illustrates skin permeation rate of Compound 2 for up to 24 hours. FIG. 3E illustrates average permeability coefficient (Kp) of Compound 2 for 1, 2, 4, 8, 12 and 24 hours.
First reader's note: The substance name is taken from the legend of the plot printed above the table; the values are three replicate permeation rates, their average and their range.

[5] = FIG.4D
Protocol: Table printed on a drawing sheet, FIG.4D
The patent's description of the figure: FIG. 4A provides the MS spectrum for Compound 3. FIG. 4B provides the HPLC chromatogram for Compound 3. FIG. 4C provides SPR assay curves showing the binding affinity of Compound 3 for IL-13, the x-axis represents time of reaction and y-axis represents altitude of response (Response Units). FIG. 4D illustrates skin permeation rate of Compound 3 for up to 24 hours. FIG. 4E illustrates average permeability coefficient (Kp) of Compound 3 for 1, 2, 4, 8, 12 and 24 hours.
First reader's note: The substance name is printed only in the legend of the plot above the table; columns 2 to 4 are three replicate permeation measurements.

[6] = FIG. 5D
Protocol: Table printed on a drawing sheet, FIG. 5D
The patent's description of the figure: FIG. 5A provides the MS spectrum for Compound 4. FIG. 5B provides the HPLC chromatogram for Compound 4. FIG. 5C provides SPR assay curves showing the binding affinity of Compound 4 for IL-13, the x-axis represents time of reaction and y-axis represents altitude of response (Response Units). FIG. 5D illustrates skin permeation rate of Compound 4 for up to 24 hours. FIG. 5E illustrates average permeability coefficient (Kp) of Compound 4 for 1, 2, 4, 8, 12 and 24 hours.
First reader's note: The substance name is taken from the legend of the plot above the table on the same sheet; the values are skin permeation rates over time.

[7] = FIG. 6D
Protocol: Table printed on a drawing sheet, FIG. 6D
The patent's description of the figure: FIG. 6A provides the MS spectrum of Compound 5. FIG. 6B provides the HPLC chromatogram for Compound 5. FIG. 6C provides SPR assay curves showing the binding affinity of Compound 5 for IL-13, the x-axis represents time of reaction and y-axis represents altitude of response (Response Units). FIG. 6D illustrates skin permeation rate of Compound 5 for up to 24 hours. FIG. 6E illustrates average permeability coefficient (Kp) of Compound 5 for 1, 2, 4, 8, 12 and 24 hours.
First reader's note: The substance name Compound 5 comes from the legend of the plot printed above the table; the values are three replicate permeation measurements with their average and range.

[8] = FIG. 7D
Protocol: Table printed on a drawing sheet, FIG. 7D
The patent's description of the figure: FIG. 7A provides the MS spectrum for Compound 6. FIG. 7B provides the HPLC chromatogram for Compound 6. FIG. 7C provides SPR assay curves showing the binding affinity of Compound 6 for IL-13, the x-axis represents time of reaction and y-axis represents altitude of response (Response Units). FIG. 7D illustrates skin permeation rate of Compound 6 for up to 24 hours. FIG. 7E illustrates average permeability coefficient (Kp) of Compound 6 for 1, 2, 4, 8, 12 and 24 hours.
First reader's note: The substance name Compound 6 is taken from the legend of the plot printed above the table on the same sheet.

Chain of Human IL-13 (P35225 25-146): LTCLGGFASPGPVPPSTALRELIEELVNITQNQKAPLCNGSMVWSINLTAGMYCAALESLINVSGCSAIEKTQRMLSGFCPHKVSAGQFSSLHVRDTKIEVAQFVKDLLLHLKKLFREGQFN

SMILES | Average Permeation Rate After 1 Hour (%) [1] [%] | Average Permeation Rate After 24 Hours (%) [1] [%] | Papp at 1 h, 1 mg/mL [1] [×10⁻⁶ cm/s] | Papp at 24 h, 1 mg/mL [1] [×10⁻⁶ cm/s] | Permeation Avg. (%) [2] | Kd [3] [µM] | Permeation Avg. (%) [4] | Permeation Avg. (%) [5] | Permeation Avg. (%) [6] | Permeation Avg. (%) [7] | Permeation Avg. (%) [8]
CC(C)[C@H]1NC(=O)[C@@H](Cc2ccccc2)NC(=O)[C@@H](CCCNC(=N)N)NC(=O)[C@@H]2CCCN2C(=O)[C@H](CCC(=O)O)NC(=O)[C@H](Cc2ccc(O)cc2)NC1=O [Compound 1, D-Arg D-Phe D- Val Tyr Glu Pro] (cyclo(EP[dR][dF][dV]Y)) | 18.54 | 42.06 | 11.1 | > 0.0278 | 23.80% and 30.38% and 34.53% and 39.28% | 16 | – | – | – | – | –
CC(C)[C@H]1NC(=O)[C@H]([C@@H](C)O)NC(=O)[C@H](CCCNC(=N)N)NC(=O)[C@H]2CCCN2C(=O)[C@@H](Cc2ccccc2)NC(=O)[C@H](CCC(=O)O)NC1=O [Compound 2, Arg Thr D-Val Glu D-Phe D-Pro] (cyclo(E[dF][dP]RT[dV])) | 14.62 | 30.51 | 8.69 | – | – | 17.4 | 18.57% and 23.21% and 25.36% and 28.50% | – | – | – | –
CC(C)[C@H]1NC(=O)[C@@H]([C@H](C)O)NC(=O)[C@H](CCC(=O)O)NC(=O)[C@H]2CCCN2C(=O)[C@H]2CCCN2C(=O)[C@H](Cc2c[nH]c3ccccc23)NC1=O [Compound 3, Glu D-Thr D-Val Trp D-Pro D-Pro] (cyclo(E[dT][dV]W[dP][dP])) | 19.61 | 36.59 | 11.7 | – | – | 22.8 | – | 24.16% and 28.65% and 31.31% and 34.61% | – | – | –
CC(C)[C@H]1NC(=O)[C@H](CCC(=O)O)NC(=O)[C@H](CCCNC(=N)N)NC(=O)[C@H]2CCCN2C(=O)[C@H]2CCCN2C(=O)[C@H](Cc2c[nH]c3ccccc23)NC1=O [Compound 4, Arg Glu D-Val Trp D-Pro D-Pro] (cyclo(E[dV]W[dP][dP]R)) | 17.28 | 35.59 | 10.3 | > 0.0278 | – | 26.2 | – | – | 21.81% and 27.10% and 30.14% and 33.22% | – | –
CC(C)[C@@H]1NC(=O)[C@H](Cc2c[nH]c3ccccc23)NC(=O)[C@H]2CCCN2C(=O)[C@H]2CCCN2C(=O)[C@H](CCC(=O)O)NC(=O)[C@H](CCCNC(=N)N)NC1=O [Compound 5, Trp Val Arg Glu D-Pro D-Pro] (cyclo(E[dP][dP]WVR)) | – | 48.73 | 13.4 | – | – | 47.1 | – | – | – | 29.54% and 37.22% and 40.94% and 45.90% | –
CC(C)[C@H]1NC(=O)[C@@H]([C@H](C)O)NC(=O)[C@H](CCC(=O)O)NC(=O)[C@H](CCCNC(=N)N)NC(=O)[C@H](Cc2ccc(O)cc2)NC(=O)[C@H]2CCCN2C1=O [Compound 6, Tyr Arg Glu D-Thr D-Val D-Pro] (cyclo(E[dT][dV][dP]YR)) | 15.34 | 33.86 | 9.14 | – | – | 55.4 | – | – | – | – | 22.01% and 26.17% and 29.25% and 31.77%
